# Test results: patent US20230146455A1, “TREATMENT OF INFLAMMATORY DISEASES WITH PEPTIDES AND PHARMACEUTICAL COMPOSITIONS” (Yuyu Pharma, Inc., priority 2020, published 2023)
# “And” between values parts separate entries of the source, which are not always exact repeats. Equal values may be shown once. Where a SMILES comes first, the peptide text is derived from it. [ ]: non-standard residue; d: D form. Hyp = O=C(O)[C@@H]1C[C@@H](O)CN1
# Experiments:
# IL-8/CXCL8 = test: Example 8 main study Luminex, LPS hPBMCs: IL-8/CXCL8; assay type: cell-based, human; conditions: for IL-8/CXCL8 Concentration: single replicates (1st, 2nd, 3rd); for LPS-induced IL-8 (in words): at as low as 5 μM, LPS 5 ug/mL 24 hrs
# Procedure: (§1) Human PBMCs were pretreated with YY-101, YDE-011, YDE-043 or reference compound; Xiidra® at various concentration (ranging from […] to 500 nM) for 2 h before stimulation. An equal volume of 0.5% DMSO was used as a vehicle control. Then, the cells were treated with LPS at 5 ug/ml, which was selected based on the pilot study. The supernatants from treated cells were harvested at 24 h and placed in a 96 well for Luminex cytokine & chemokine profiling using a Luminex 200 multiplex assay (Luminex; R&D system, USA).
# (§2) The main study arm with triplicate wells per group in a 24-well plate: • 1. Blank • 2. PBMC: 0.5% DMSO • 3. PBMC+LPS (5 ug/ml) • 4. PBMC+YY-101 500 nM • 5. PBMC+YY-101 50 nM • 6. PBMC+YY-101 5 nM • 7. PBMC+YY-101 0.5 nM • 8. PBMC+LPS (5 ug/ml)+Xiidra® 500 nM • 9. PBMC+LPS (5 ug/ml)+Xiidra® 50 nM • 10. PBMC+LPS (5 ug/ml)+Xiidra® 5 nM • 11. PBMC+LPS (5 ug/ml)+Xiidra® 0.5 nM • 12. PBMC+LPS (5 ug/ml)+Xiidra® 0.05 nM • 13. PBMC+LPS (5 ug/ml)+Xiidra® 0.005 nM • 14. PBMC+LPS (5 ug/ml)+YY-101 500 nM • 15. PBMC+LPS (5 ug/ml)+YY-101 50 nM • 16. PBMC+LPS (5 ug/ml)+YY-101 5 nM • 17. PBMC+LPS (5 ug/ml)+YY-101 0.5 nM • 18. PBMC+LPS (5 ug/ml)+YY-101 0.05 nM • 19. PBMC+LPS (5 ug/ml)+YY-101 0.005 nM • 20. PBMC+LPS (5 ug/ml)+YDE-011 500 nM • 21. PBMC+LPS (5 ug/ml)+YDE-011 50 nM • 22. PBMC+LPS (5 ug/ml)+YDE-011 5 nM • 23. PBMC+LPS (5 ug/ml)+YDE-011 0.5 nM • 24. PBMC+LPS (5 ug/ml)+YDE-011 0.05 nM • 25. PBMC+LPS (5 ug/ml)+YDE-011 0.005 nM • 26. PBMC+LPS (5 ug/ml)+YDE-043 500 nM • 27. PBMC+LPS (5 ug/ml)+YDE-043 50 nM • 28. PBMC+LPS (5 ug/ml)+YDE-043 5 nM • 29. PBMC+LPS (5 ug/ml)+YDE-043 0.5 nM • 30. PBMC+LPS (5 ug/ml)+YDE-043 0.05 nM • 31. PBMC+LPS (5 ug/ml)+YDE-043 0.005 nM
# (§3) Multiplex assay was used to measure 30 cytokines and chemokines. The 1:200 diluted cell supernatant and serial dilution of the standard were dispensed into a 96 well plate at 50 ul/well. Then, the pre-mixed cocktail of antibody-coated magnetic beads was dispensed at 50 ul/well and incubated at room temperature for 2 h in a horizontal orbital microplate shaker at 800±500 rpm. The beads were washed using a magnetic device to prevent loss. The biotin-antibody was dispensed in 50 ul of each well and incubated at room temperature for 1 h in a shaker at 800±500 rpm. After washing, streptavidin-PE was added at 50 ul/well and incubated at room temperature for 30 min in a shaker under the same conditions. Finally, after washing, wash buffer (100 ul/well) was added to the plate and incubated in a shaker for 2 min. The Luminex™ 200 setting were set according to the manufacturer's protocol. The data was calculated with a standard five-parameter logistic nonlinear regression analysis of the data (xPonent software 4.2, USA). Results were presented as concentration (ng/ml or pg/ml).
# IL-2 = test: Example 8 main study Luminex, LPS hPBMCs: IL-2; assay type: cell-based, human; conditions: for IL-2 Concentration, individual wells / IL-2 MFI, individual wells / IL-2 MFI, Mean / IL-2 Concentration, Mean: 24 h; for IL-2 MFI, Mean: LPS alone Mean 80.5; for IL-2 Concentration, Mean: LPS alone Mean 3988.7; for LPS-induced IL-2 (in words): at as low as 5 μM, LPS 5 ug/mL 24 hrs
# Procedure: as §1, §2, §3
# [1] = PBMC + LPS(5 ug/ml) + test article 0.005 nM
# [2] = PBMC + LPS(5 ug/ml) + test article 0.05 nM
# [3] = PBMC + LPS(5 ug/ml) + test article 0.5 nM
# [4] = PBMC + LPS(5 ug/ml) + test article 5 nM
# [5] = PBMC + LPS(5 ug/ml) + test article 50 nM
# [6] = PBMC + LPS(5 ug/ml) + test article 500 nM
# [7] = PBMC + LPS(5 ug/ml) + compound 0.005 nM
# [8] = PBMC + LPS(5 ug/ml) + compound 0.05 nM
# [9] = PBMC + LPS(5 ug/ml) + compound 0.5 nM
# [10] = PBMC + LPS(5 ug/ml) + compound 5 nM
# [11] = PBMC + LPS(5 ug/ml) + compound 50 nM
# [12] = PBMC + LPS(5 ug/ml) + compound 500 nM
smiles,measurement,setting,value
CC(C)C[C@H](NC(=O)CNC(=O)[C@H](CC(C)C)NC(=O)[C@H](CCC(N)=O)NC(=O)CNC(=O)[C@@H]1C[C@@H](O)CN1)C(=O)N[C@@H](C)C(=O)NCC(=O)N1CCC[C@H]1C(=O)N[C@@H](CCCCN)C(=O)O [YDE-011] (H-[Hyp]GQLGLAGPK-OH),"IL-8/CXCL8 Concentration, Mean",IL-8/CXCL8; [1],54720.2 pg/mL
same,IL-8/CXCL8 Concentration,IL-8/CXCL8; [1],55905.6 pg/mL and 51994.7 pg/mL and 56260.2 pg/mL
same,"IL-8/CXCL8 Concentration, Mean",IL-8/CXCL8; [2],61143.7 pg/mL
same,IL-8/CXCL8 Concentration,IL-8/CXCL8; [2],61568.6 pg/mL and 60755.7 pg/mL and 61106.8 pg/mL
same,"IL-8/CXCL8 Concentration, Mean",IL-8/CXCL8; [3],52309.1 pg/mL
same,IL-8/CXCL8 Concentration,IL-8/CXCL8; [3],52927.0 pg/mL and 52269.8 pg/mL and 51730.5 pg/mL
same,"IL-8/CXCL8 Concentration, Mean",IL-8/CXCL8; [4],46534.3 pg/mL
same,IL-8/CXCL8 Concentration,IL-8/CXCL8; [4],45587.7 pg/mL and 43107.6 pg/mL and 50907.7 pg/mL
same,"IL-8/CXCL8 Concentration, Mean",IL-8/CXCL8; [5],46922.1 pg/mL
same,IL-8/CXCL8 Concentration,IL-8/CXCL8; [5],54235.8 pg/mL and 55272.7 pg/mL and 31257.8 pg/mL
same,"IL-8/CXCL8 Concentration, Mean",IL-8/CXCL8; [6],49501.9 pg/mL
same,IL-8/CXCL8 Concentration,IL-8/CXCL8; [6],66288.2 pg/mL and 31741.3 pg/mL and 50476.2 pg/mL
same,LPS-induced IL-8 (in words),IL-8/CXCL8,significantly reduced
same,"IL-2 Concentration, individual wells",IL-2; [7],2239.1 pg/mL and 2082.5 pg/mL and 2707.7 pg/mL
same,"IL-2 MFI, individual wells",IL-2; [7],58.0 and 56.0 and 64.0
same,"IL-2 MFI, Mean",IL-2; [7],59.3
same,"IL-2 Concentration, Mean",IL-2; [7],2343.1 pg/mL
same,"IL-2 Concentration, individual wells",IL-2; [8],2707.7 pg/mL and 2473.6 pg/mL and 2824.6 pg/mL
same,"IL-2 MFI, individual wells",IL-2; [8],64.0 and 61.0 and 65.5
same,"IL-2 MFI, Mean",IL-2; [8],63.5
same,"IL-2 Concentration, Mean",IL-2; [8],2668.6 pg/mL
same,"IL-2 Concentration, individual wells",IL-2; [9],2239.1 pg/mL and 1925.7 pg/mL and 2200.0 pg/mL
same,"IL-2 MFI, individual wells",IL-2; [9],58.0 and 54.0 and 57.5
same,"IL-2 MFI, Mean",IL-2; [9],56.5
same,"IL-2 Concentration, Mean",IL-2; [9],2121.6 pg/mL
same,"IL-2 Concentration, individual wells",IL-2; [10],1532.6 pg/mL and 1611.3 pg/mL and 2551.7 pg/mL
same,"IL-2 MFI, individual wells",IL-2; [10],49.0 and 50.0 and 62.0
same,"IL-2 MFI, Mean",IL-2; [10],53.7
same,"IL-2 Concentration, Mean",IL-2; [10],1898.5 pg/mL
same,"IL-2 Concentration, individual wells",IL-2; [11],2160.8 pg/mL and 659.4 pg/mL and 2082.5 pg/mL
same,"IL-2 MFI, individual wells",IL-2; [11],57.0 and 38.0 and 56.0
same,"IL-2 MFI, Mean",IL-2; [11],50.3
same,"IL-2 Concentration, Mean",IL-2; [11],1634.3 pg/mL
same,"IL-2 Concentration, individual wells",IL-2; [12],2941.4 pg/mL and 579.2 pg/mL and 1729.4 pg/mL
same,"IL-2 MFI, individual wells",IL-2; [12],67.0 and 37.0 and 51.5
same,"IL-2 MFI, Mean",IL-2; [12],51.8
same,"IL-2 Concentration, Mean",IL-2; [12],1750.0 pg/mL
same,LPS-induced IL-2 (in words),IL-2,significantly reduced
CC(C)C[C@H](NC(=O)[C@H](CCC(N)=O)NC(=O)CNC(=O)[C@@H]1C[C@@H](O)CN1)C(=O)NCC(=O)O [YDE-043] (H-[Hyp]GQLG-OH; N-terminus and C-terminus assumed),"IL-8/CXCL8 Concentration, Mean",IL-8/CXCL8; [1],59062.0 pg/mL
same,IL-8/CXCL8 Concentration,IL-8/CXCL8; [1],56206.5 pg/mL and 53607.2 pg/mL and 67372.3 pg/mL
same,"IL-8/CXCL8 Concentration, Mean",IL-8/CXCL8; [2],51146.6 pg/mL
same,IL-8/CXCL8 Concentration,IL-8/CXCL8; [2],48485.5 pg/mL and 53107.5 pg/mL and 51846.7 pg/mL
same,"IL-8/CXCL8 Concentration, Mean",IL-8/CXCL8; [3],52327.4 pg/mL
same,IL-8/CXCL8 Concentration,IL-8/CXCL8; [3],55144.2 pg/mL and 51593.2 pg/mL and 50244.9 pg/mL
same,"IL-8/CXCL8 Concentration, Mean",IL-8/CXCL8; [4],56067.9 pg/mL
same,IL-8/CXCL8 Concentration,IL-8/CXCL8; [4],56540.0 pg/mL and 58269.2 pg/mL and 53394.4 pg/mL
same,"IL-8/CXCL8 Concentration, Mean",IL-8/CXCL8; [5],55575.7 pg/mL
same,IL-8/CXCL8 Concentration,IL-8/CXCL8; [5],57759.9 pg/mL and 58638.2 pg/mL and 50329.0 pg/mL
same,"IL-8/CXCL8 Concentration, Mean",IL-8/CXCL8; [6],51601.8 pg/mL
same,IL-8/CXCL8 Concentration,IL-8/CXCL8; [6],51413.7 pg/mL and 49678.2 pg/mL and 53713.6 pg/mL
same,LPS-induced IL-8 (in words),IL-8/CXCL8,significantly reduced
same,"IL-2 Concentration, individual wells",IL-2; [7],2239.1 pg/mL and 2317.3 pg/mL and 3058.1 pg/mL
same,"IL-2 MFI, individual wells",IL-2; [7],58.0 and 59.0 and 68.5
same,"IL-2 MFI, Mean",IL-2; [7],61.8
same,"IL-2 Concentration, Mean",IL-2; [7],2538.2 pg/mL
same,"IL-2 Concentration, individual wells",IL-2; [8],2004.2 pg/ml and 2239.1 pg/ml (2×)
same,"IL-2 MFI, individual wells",IL-2; [8],55.0 and 58.0 (2×)
same,"IL-2 MFI, Mean",IL-2; [8],57.0
same,"IL-2 Concentration, Mean",IL-2; [8],2160.8 pg/mL
same,"IL-2 Concentration, individual wells",IL-2; [9],2082.5 pg/mL and 2317.3 pg/mL and 2121.7 pg/mL
same,"IL-2 MFI, individual wells",IL-2; [9],56.0 and 59.0 and 56.5
same,"IL-2 MFI, Mean",IL-2; [9],57.2
same,"IL-2 Concentration, Mean",IL-2; [9],2173.8 pg/mL
same,"IL-2 Concentration, individual wells",IL-2; [10],2785.6 pg/mL and 2395.5 pg/mL and 2473.6 pg/mL
same,"IL-2 MFI, individual wells",IL-2; [10],65.0 and 60.0 and 61.0
same,"IL-2 MFI, Mean",IL-2; [10],62.0
same,"IL-2 Concentration, Mean",IL-2; [10],2551.6 pg/mL
same,"IL-2 Concentration, individual wells",IL-2; [11],2551.7 pg/mL and 2395.5 pg/mL and 2239.1 pg/mL
same,"IL-2 MFI, individual wells",IL-2; [11],62.0 and 60.0 and 58.0
same,"IL-2 MFI, Mean",IL-2; [11],60.0
same,"IL-2 Concentration, Mean",IL-2; [11],2395.4 pg/mL
same,"IL-2 Concentration, individual wells",IL-2; [12],2004.2 pg/mL and 2082.5 pg/mL and 2239.1 pg/mL
same,"IL-2 MFI, individual wells",IL-2; [12],55.0 and 56.0 and 58.0
same,"IL-2 MFI, Mean",IL-2; [12],56.3
same,"IL-2 Concentration, Mean",IL-2; [12],2108.6 pg/mL
same,LPS-induced IL-2 (in words),IL-2,significantly reduced
